Like-named read-outs stand apart in the source and are kept apart here.

The source of these data is patent publication US12227895B2, “Odor reduction and bacterial control on a textile material” (Microban Products Company, priority 2019, dated 2025).

In one assay the test system is bacteria. The settings on record: for efficacy after home launderings: after 25 home launderings (FIG. 3); for efficacy (AATCC TM100): salts only, zero home launderings, liquor pH not lowered (FIG. 1).
Another assay has as its system Kp. The settings on record: Polyester Fabric, Mathis JFO Exhaust.

Protocol for Kp: High dye load samples are the most difficult to process using exhaustion dye techniques. A series of tests were run using PET (polyester) and polyspandex fabrics. In this test series the materials were tested in two different laboratories using container-style lab exhaust equipment. Alongside the treated samples, untreated fabrics were run for comparison.
The fabrics were tested as-made and after 25 home launderings (25 HL). Each home laundering was performed in a commercial front-load washing machine per AATCC Monograph M6 using Tide HE detergent.
Trials have been performed in a small Thiele exhaustion pilot unit, as well as in Mathis JFO pilot scale equipment, both of which use jets to forcibly impregnate the textile with the exhaust liquor.
Reductive Clears—Method A is 1% Na Hydrosulfite whereas Method B is 0.3% NaOH, 0.4% Na Hydrosulfite. “owg” is “on weight of goods”.

Consider `O=C(O)CC(O)(CC(=O)O)C(=O)O` [Citric acid, citric acid], for which, in the assay with bacteria, the “efficacy after home launderings” value is “not able to maintain efficacy”.

With `C/C=C/C=C/C(=O)[O-].[K+]` [potassium sorbate, reference compound], the “efficacy (AATCC TM100)” value with bacteria is “relatively low levels of efficacy”.

Consider `O=C([O-])c1ccccc1.[Na+]` [sodium benzoate], for which the “efficacy (AATCC TM100)” value in the assay on bacteria is “relatively low levels of efficacy”. Moreover, the Percent reduction in the assay on Kp (0 HL, sodium benzoate acidified with citric acid to pH<3.6, run as Example 4) is reported as 99.50%; with Kp (25 HL, sodium benzoate acidified with citric acid to pH<3.6), 99.50%.

In the case of `C/C=C/C=C/C(=O)O` [sorbic acid], in the assay on bacteria, the “efficacy after home launderings” value is reported as “able to maintain efficacy following multiple washing cycles”. The “efficacy after a reductive clear” value with bacteria (exhausted on polyester fabric, 0 HL (FIG. 4)) is recorded as “demonstrate efficacy after the reductive clear”.

For `O=C([O-])CC(O)(CC(=O)[O-])C(=O)[O-].[Na+].[Na+].[Na+]` [trisodium citrate, reference compound], in the assay on bacteria, the “efficacy (AATCC TM100)” value is “relatively low levels of efficacy”.
